From patent US20060182805A1, “Dosage form and method for sustained release of substituted pyrazine compound” (Jazz Pharmaceuticals, priority 2005, published 2006)
Read-outs that look alike come from different tables or passages of the source.

Columns and labels:
[1] = Pharmacokinetics of the drug after single oral dose (volume of distribution, half lives); format: in vivo; details: for half-life: human, plasma, oral
Experimental: In this case, the drug is eliminated rapidly from the plasma via distribution into other tissues as well as through metabolism and excretion into the urine. The rapid elimination makes it necessary to deliver the drug into the GI tract for extended periods of time, up to about 24 hours. It may also require that the drug be delivered in an ascending profile such as that shown in this FIG. 5. Such ascending profile may be accomplished by increasing the dose from an initial dose in two to five increments to achieve a desired maximum dose or by delivering a dosage form with an ascending profile for the initial two to five doses. Such doses may be delivered every 24 hours or every 12 hours.
A steady state plasma profile occurs after the administration of two to three doses. The achievement of steady state with the desirable Cmax/Cmin ratio after the administration of very few doses is advantageous in that therapeutic levels are achieved in a short time and maintained thereafter. Rapid attainment of steady state allows for faster increases or decreases in dose without unwanted side effects and the resultant titration to a therapeutically effective dose and, if necessary, withdrawal of therapy. The Cmax/Cmin ratio at steady state is less than 3, often less than 2, often less than 1.5 and between 1.0 and 2.

[2] = In vitro release rate (dissolution) from dosage forms, FIG. 3-5; format: physicochemical
Experimental: By “dissolution rate” or “release rate” is intended the amount of active agent released in vitro from a dosage form per unit time into a release medium, usually in units of milligrams per hour (mg/hr). In vitro release rates are performed on dosage forms placed in metal coil sample holders attached to a USP Type VII bath indexer in a constant temperature water bath at 37° C. In addition, other appropriate dissolution test apparatuses may be suitable, such as, USP apparatus I or II. Aliquots of the release rate solutions are injected into a chromatographic system to quantify the amounts of drug released during each testing interval. According to the invention, between 2 and 50% of the dose is released following two hours after exposure of the dosage form to the environment of use. These dissolution rates may be between 2 and 60% or 10 and 50% within the first 4 hours, between about 20 and 80% or 35 and 70% from 4 hours to about 8 hours following exposure to the environment of use between about 35 and 95% or 45 and 85% from 8 hours to about 12 hours following exposure to the environment of use and greater than 50 to 80% or greater than 90% following 12 hours after exposure to the environment of use and greater than 90% following 22 hours after exposure to the environment of use.

half-life ([1]; read-out: final half life of the drug): 10 to 13 h
half-life ([1]; read-out: initial half life of the drug): < 5 h
volume of distribution (Vd) ([1]; single oral dose): about 640 liters
period of release, controlled and increasing dose ([2]; ascending release profile, FIG. 5): 24 h
period of release of active agent ([2]; first-order release profile, FIG. 4): about 20 hours
amount released ([2]; first-order release profile, after 11 hours, FIG. 4): 90%
period of release of active agent ([2]; zero-order release profile, FIG. 3): about 20 hours
amount released ([2]; zero-order release profile, after 16 hours, FIG. 3): 90%
SMILES: Nc1cnc(-c2cc(Cl)cc(Cl)c2Cl)c(N)n1 [3-(2,3,5-trichloro-phenyl)-pyrazine-2,6-diamine]
